Assay results from patent US10179174B2, “Method for inducing an immune response and formulations thereof” (priority 2011, dated 2019).

Key:
CD4 = details: literature; cited from earlier work
HSV-1 virus = details: Peptide J alone; Taylor et al.; cited from earlier work
BM cells (iDCs) = test: Flow cytometry phenotyping of BM cells (iDCs) incubated with LEAPS heteroconjugates or LPS; assay type: cell-based, BALB/c mice; details: 14.5 micromoles per well (about 10^6 cells), incubation 24, 48 or 72 hours

DGQEEKAGVVSTGLI (H-DGQEEKAGVVSTGLI-NH2) [CEL-1000, ICBL peptide derived from the β-chain of MHC II]
binding to CD4 (CD4): bind to CD4

DLLKNGERIEKVE [J Peptide, ICBL derived from amino acids 38-50 of the β-2-microglobulin chain of the MHC I molecule]
protection against infection (HSV-1 virus): does not induce protection against infection

lipopolysaccharide [LPS]
upregulation for CD80, CD86 and MHC II compared to untreated cells (BM cells (iDCs)): significant upregulation
